From the kinase profiling compilation of Christmann-Franck et al. (2016)

How the values were obtained:
Assay in all cases: radiometric filter-binding kinase assay, Kinase HotSpot
Details in all cases: compound 0.5 µM; ATP 10 µM
CHEK2 (human) = CHEK2 (human) (UniProt O96017)
PRKCA (human) = PRKCA (human) (UniProt P17252)
DYRK1B (human) = DYRK1B (human) (UniProt Q9Y463)
PHKG2 (human) = PHKG2 (human) (UniProt P15735)
CSF1R (human) = CSF1R (human) (UniProt P07333)
DYRK4 (human) = DYRK4 (human) (UniProt Q9NR20)
PRKCB1 (human) = PRKCB1 (human) (UniProt P05771)
MAP3K9 (human) = MAP3K9 (human) (UniProt P80192)
CDK9 CCNK (human) = CDK9 CCNK (human) (UniProt O75909+P50750)
NUAK1 (human) = NUAK1 (human) (UniProt O60285)
GSK3B (human) = GSK3B (human) (UniProt P49841)
SRMS (human) = SRMS (human) (UniProt Q9H3Y6)
FGFR4 (human) = FGFR4 (human) (UniProt P22455)
ADRBK1 (human) = ADRBK1 (human) (UniProt P25098)
ADRBK2 (human) = ADRBK2 (human) (UniProt P35626)
CDK2 CCNE1 (human) = CDK2 CCNE1 (human) (UniProt P24941+P24864)
PDGFRA (human) = PDGFRA (human) (UniProt P16234)
MAP3K5 (human) = MAP3K5 (human) (UniProt Q99683)
CDK6 CCND1 (human) = CDK6 CCND1 (human) (UniProt Q00534+P24385)
GRK7 (human) = GRK7 (human) (UniProt Q8WTQ7)
WNK3 (human) = WNK3 (human) (UniProt Q9BYP7)
EPHA8 (human) = EPHA8 (human) (UniProt P29322)
CDK3 CCNE1 (human) = CDK3 CCNE1 (human) (UniProt Q00526+P24864)
MAPK10 (human) = MAPK10 (human) (UniProt P53779)
TTK (human) = TTK (human) (UniProt P33981)
[1] = tested on: PRKCQ (human), Q04759 [P330L]
NEK4 (human) = NEK4 (human) (UniProt P51957)
ERBB4 (human) = ERBB4 (human) (UniProt Q15303)
PLK1 (human) = PLK1 (human) (UniProt P53350)
PTK6 (human) = PTK6 (human) (UniProt Q13882)
PRKCZ (human) = PRKCZ (human) (UniProt Q05513)
MAPKAPK3 (human) = MAPKAPK3 (human) (UniProt Q16644)
NEK6 (human) = NEK6 (human) (UniProt Q9HC98)
NEK3 (human) = NEK3 (human) (UniProt P51956)
MAP4K2 (human) = MAP4K2 (human) (UniProt Q12851)
PRKG2 (human) = PRKG2 (human) (UniProt Q13237)
LRRK2 (human) = LRRK2 (human) (UniProt Q5S007)
CAMK2G (human) = CAMK2G (human) (UniProt Q13555)
ACVR1 (human) = ACVR1 (human) (UniProt Q04771)
NEK7 (human) = NEK7 (human) (UniProt Q8TDX7)
TBK1 (human) = TBK1 (human) (UniProt Q9UHD2)
TGFBR1 (human) = TGFBR1 (human) (UniProt P36897)
Sequence of TGFBR1 (human) (P36897 whole entry, looked up): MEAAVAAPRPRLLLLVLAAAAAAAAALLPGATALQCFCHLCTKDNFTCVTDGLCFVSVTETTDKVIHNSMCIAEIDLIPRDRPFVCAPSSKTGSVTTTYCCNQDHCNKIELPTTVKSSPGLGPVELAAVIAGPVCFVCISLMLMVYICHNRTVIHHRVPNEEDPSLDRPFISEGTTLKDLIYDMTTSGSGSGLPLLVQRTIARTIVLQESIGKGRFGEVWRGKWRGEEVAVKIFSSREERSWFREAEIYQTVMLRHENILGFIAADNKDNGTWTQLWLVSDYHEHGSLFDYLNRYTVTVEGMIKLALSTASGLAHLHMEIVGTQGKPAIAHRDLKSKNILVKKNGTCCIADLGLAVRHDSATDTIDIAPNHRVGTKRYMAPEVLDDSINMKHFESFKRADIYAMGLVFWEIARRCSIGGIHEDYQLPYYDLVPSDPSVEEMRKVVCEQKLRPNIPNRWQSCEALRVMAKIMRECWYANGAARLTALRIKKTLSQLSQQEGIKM

Sequence of NEK3 (human) (P51956 whole entry, looked up): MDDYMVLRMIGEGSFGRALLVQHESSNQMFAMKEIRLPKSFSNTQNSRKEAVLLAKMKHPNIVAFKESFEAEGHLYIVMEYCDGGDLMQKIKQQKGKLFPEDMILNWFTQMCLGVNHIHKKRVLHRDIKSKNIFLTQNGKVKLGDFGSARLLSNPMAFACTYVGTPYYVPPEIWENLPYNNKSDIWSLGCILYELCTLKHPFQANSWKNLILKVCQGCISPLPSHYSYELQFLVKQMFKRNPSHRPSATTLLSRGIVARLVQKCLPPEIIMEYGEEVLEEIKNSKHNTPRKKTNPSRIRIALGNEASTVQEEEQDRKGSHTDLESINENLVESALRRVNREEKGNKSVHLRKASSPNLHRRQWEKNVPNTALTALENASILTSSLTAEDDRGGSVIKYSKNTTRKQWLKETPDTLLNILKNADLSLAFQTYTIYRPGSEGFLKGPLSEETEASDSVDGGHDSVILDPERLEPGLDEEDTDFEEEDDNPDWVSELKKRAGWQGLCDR
Sequence of PRKCB1 (human) (P05771 whole entry, looked up): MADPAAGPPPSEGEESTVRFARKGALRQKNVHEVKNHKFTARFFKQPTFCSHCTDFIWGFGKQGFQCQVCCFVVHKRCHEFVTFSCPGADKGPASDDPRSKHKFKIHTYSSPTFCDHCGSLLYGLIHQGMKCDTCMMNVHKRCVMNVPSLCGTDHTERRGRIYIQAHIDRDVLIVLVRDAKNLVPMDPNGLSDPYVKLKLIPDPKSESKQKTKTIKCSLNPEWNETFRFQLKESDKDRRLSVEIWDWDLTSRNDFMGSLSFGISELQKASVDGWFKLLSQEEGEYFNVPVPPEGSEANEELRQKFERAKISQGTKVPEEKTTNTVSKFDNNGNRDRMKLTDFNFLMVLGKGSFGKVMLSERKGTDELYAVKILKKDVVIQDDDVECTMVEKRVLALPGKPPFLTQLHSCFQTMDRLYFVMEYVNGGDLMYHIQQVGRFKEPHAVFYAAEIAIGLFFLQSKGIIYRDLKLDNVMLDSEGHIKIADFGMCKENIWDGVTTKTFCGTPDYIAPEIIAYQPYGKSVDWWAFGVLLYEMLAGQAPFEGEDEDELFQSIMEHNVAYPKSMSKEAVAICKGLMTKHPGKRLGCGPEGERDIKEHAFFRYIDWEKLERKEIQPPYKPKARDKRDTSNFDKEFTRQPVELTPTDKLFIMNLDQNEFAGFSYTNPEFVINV
Sequence of PDGFRA (human) (P16234 whole entry, looked up): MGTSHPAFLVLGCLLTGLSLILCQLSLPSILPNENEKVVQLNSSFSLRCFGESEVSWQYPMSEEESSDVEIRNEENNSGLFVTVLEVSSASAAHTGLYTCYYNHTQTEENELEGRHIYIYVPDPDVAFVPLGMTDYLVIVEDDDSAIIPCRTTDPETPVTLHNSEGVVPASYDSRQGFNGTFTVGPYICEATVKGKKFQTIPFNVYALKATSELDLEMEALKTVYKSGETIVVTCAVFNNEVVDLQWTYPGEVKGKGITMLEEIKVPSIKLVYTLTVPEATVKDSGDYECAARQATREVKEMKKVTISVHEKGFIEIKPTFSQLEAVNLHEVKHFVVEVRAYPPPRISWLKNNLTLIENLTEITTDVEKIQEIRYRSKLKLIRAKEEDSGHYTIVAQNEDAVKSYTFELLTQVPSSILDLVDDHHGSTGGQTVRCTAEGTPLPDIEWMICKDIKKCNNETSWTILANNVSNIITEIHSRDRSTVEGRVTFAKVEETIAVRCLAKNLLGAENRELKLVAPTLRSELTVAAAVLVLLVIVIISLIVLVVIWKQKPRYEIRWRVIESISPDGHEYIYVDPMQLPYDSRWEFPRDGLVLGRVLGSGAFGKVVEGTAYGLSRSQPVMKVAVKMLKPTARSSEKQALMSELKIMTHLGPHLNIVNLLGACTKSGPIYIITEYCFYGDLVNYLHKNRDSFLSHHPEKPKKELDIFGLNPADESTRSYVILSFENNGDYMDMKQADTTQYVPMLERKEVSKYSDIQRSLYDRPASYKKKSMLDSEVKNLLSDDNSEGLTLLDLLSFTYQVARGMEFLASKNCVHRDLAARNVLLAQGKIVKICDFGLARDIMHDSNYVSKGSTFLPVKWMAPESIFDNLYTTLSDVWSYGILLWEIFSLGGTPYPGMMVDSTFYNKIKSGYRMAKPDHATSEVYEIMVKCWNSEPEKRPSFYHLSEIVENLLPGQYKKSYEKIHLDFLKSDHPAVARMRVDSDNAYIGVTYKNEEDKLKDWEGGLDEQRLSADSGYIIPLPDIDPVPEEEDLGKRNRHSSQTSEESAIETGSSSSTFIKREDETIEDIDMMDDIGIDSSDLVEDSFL
Sequence of CDK6 CCND1 (human) (P24385 whole entry, looked up): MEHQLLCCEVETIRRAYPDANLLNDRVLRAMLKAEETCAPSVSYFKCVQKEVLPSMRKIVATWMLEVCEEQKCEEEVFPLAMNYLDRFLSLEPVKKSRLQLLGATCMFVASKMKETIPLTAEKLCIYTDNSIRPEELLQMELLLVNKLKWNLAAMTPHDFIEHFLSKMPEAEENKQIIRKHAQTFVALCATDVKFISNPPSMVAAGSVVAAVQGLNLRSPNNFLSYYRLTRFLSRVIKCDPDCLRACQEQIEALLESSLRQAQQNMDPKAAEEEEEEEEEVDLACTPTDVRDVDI
Sequence of CDK6 CCND1 (human) (Q00534 whole entry, looked up): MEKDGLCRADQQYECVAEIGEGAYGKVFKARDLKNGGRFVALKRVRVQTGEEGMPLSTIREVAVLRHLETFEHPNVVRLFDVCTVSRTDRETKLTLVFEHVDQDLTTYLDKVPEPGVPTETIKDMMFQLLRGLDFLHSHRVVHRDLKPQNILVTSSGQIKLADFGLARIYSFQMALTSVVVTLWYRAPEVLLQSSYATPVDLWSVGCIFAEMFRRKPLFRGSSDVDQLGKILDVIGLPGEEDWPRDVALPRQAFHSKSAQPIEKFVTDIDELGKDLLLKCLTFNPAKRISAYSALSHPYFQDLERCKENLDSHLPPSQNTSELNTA
Sequence of CSF1R (human) (P07333 whole entry, looked up): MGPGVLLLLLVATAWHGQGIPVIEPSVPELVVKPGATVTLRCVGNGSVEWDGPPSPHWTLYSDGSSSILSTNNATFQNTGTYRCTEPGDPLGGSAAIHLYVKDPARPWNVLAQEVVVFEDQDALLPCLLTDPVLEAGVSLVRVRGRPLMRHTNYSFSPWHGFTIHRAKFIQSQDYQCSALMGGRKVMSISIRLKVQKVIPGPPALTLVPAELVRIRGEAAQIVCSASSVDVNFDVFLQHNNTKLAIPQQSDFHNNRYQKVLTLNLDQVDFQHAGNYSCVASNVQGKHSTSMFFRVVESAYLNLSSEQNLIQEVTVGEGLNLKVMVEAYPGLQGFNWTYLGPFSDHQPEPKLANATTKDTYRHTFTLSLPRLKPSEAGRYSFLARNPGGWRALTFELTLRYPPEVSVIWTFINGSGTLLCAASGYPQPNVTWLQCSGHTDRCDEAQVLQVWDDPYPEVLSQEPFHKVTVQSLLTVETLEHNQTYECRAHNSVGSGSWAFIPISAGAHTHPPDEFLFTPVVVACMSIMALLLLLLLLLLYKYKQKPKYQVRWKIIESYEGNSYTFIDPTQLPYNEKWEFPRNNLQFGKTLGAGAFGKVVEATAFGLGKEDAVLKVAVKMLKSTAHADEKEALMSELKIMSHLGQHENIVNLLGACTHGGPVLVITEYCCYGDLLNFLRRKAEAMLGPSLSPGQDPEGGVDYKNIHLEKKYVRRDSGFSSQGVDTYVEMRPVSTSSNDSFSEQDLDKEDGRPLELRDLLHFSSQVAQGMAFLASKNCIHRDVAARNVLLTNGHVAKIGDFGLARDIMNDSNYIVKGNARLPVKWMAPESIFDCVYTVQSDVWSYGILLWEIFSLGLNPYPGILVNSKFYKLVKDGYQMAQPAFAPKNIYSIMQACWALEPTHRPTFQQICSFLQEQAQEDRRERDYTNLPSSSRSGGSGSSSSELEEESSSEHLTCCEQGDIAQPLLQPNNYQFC
Sequence of ADRBK2 (human) (P35626 whole entry, looked up): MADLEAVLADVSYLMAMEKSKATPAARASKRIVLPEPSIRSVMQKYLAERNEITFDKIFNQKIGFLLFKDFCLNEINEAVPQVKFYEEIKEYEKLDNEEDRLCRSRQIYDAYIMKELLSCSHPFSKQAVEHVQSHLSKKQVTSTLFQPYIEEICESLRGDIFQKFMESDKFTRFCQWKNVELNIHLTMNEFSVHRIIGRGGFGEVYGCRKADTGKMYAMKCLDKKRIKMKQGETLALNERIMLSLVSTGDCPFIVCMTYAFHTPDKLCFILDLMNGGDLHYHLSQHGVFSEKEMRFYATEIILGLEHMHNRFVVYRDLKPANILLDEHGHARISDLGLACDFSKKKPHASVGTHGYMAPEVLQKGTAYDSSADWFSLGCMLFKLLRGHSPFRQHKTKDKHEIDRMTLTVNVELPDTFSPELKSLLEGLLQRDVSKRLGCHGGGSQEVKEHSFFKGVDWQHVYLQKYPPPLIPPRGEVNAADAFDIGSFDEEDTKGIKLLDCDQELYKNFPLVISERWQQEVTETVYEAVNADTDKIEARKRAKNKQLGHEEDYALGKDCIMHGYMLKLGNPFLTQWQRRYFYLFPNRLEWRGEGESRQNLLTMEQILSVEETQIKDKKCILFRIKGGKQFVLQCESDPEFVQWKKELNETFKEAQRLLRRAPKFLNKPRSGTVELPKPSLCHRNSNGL

Structure (SMILES): Fc1ccc(-c2nc3n(c2-c2ccncc2)CCS3)cc1
- residual activity (CHEK2 (human)): 97.7%
- residual activity (PRKCA (human)): 113%
- residual activity (DYRK1B (human)): 104%
- residual activity (PHKG2 (human)): 104%
- residual activity (CSF1R (human)): 103%
- residual activity (DYRK4 (human)): 106%
- residual activity (PRKCB1 (human)): 94.2%
- residual activity (MAP3K9 (human)): 83.6%
- residual activity (CDK9 CCNK (human)): 101%
- residual activity (NUAK1 (human)): 98.6%
- residual activity (GSK3B (human)): 105%
- residual activity (SRMS (human)): 102%
- residual activity (FGFR4 (human)): 82.8%
- residual activity (ADRBK1 (human)): 102%
- residual activity (ADRBK2 (human)): 95%
- residual activity (CDK2 CCNE1 (human)): 87.9%
- residual activity (PDGFRA (human)): 98%
- residual activity (MAP3K5 (human)): 105%
- residual activity (CDK6 CCND1 (human)): 97%
- residual activity (GRK7 (human)): 104%
- residual activity (WNK3 (human)): 105%
- residual activity (EPHA8 (human)): 88.2%
- residual activity (CDK3 CCNE1 (human)): 97%
- residual activity (MAPK10 (human)): 116%
- residual activity (TTK (human)): 100%
- residual activity [1]: 123%
- residual activity (NEK4 (human)): 93.5%
- residual activity (ERBB4 (human)): 83%
- residual activity (PLK1 (human)): 101%
- residual activity (PTK6 (human)): 84.8%
- residual activity (PRKCZ (human)): 90.6%
- residual activity (MAPKAPK3 (human)): 95.5%
- residual activity (NEK6 (human)): 98.7%
- residual activity (NEK3 (human)): 96.9%
- residual activity (MAP4K2 (human)): 109%
- residual activity (PRKG2 (human)): 93.9%
- residual activity (LRRK2 (human)): 96.7%
- residual activity (CAMK2G (human)): 90.5%
- residual activity (ACVR1 (human)): 94.2%
- residual activity (NEK7 (human)): 105%
- residual activity (TBK1 (human)): 90.6%
- residual activity (TGFBR1 (human)): 106%

Structure (SMILES): c1ccc2c(-c3ccncc3)c[nH]c2c1
- residual activity (CHEK2 (human)): 99.3%
- residual activity (PRKCA (human)): 97.4%
- residual activity (DYRK1B (human)): 90.5%
- residual activity (PHKG2 (human)): 101%
- residual activity (CSF1R (human)): 101%
- residual activity (DYRK4 (human)): 98.7%
- residual activity (PRKCB1 (human)): 95.1%
- residual activity (MAP3K9 (human)): 83.3%
- residual activity (CDK9 CCNK (human)): 91.2%
- residual activity (NUAK1 (human)): 94.8%
- residual activity (GSK3B (human)): 104%
- residual activity (SRMS (human)): 107%
- residual activity (FGFR4 (human)): 84.6%
- residual activity (ADRBK1 (human)): 97.7%
- residual activity (ADRBK2 (human)): 95.4%
- residual activity (CDK2 CCNE1 (human)): 91.7%
- residual activity (PDGFRA (human)): 95%
- residual activity (MAP3K5 (human)): 109%
- residual activity (CDK6 CCND1 (human)): 97.6%
- residual activity (GRK7 (human)): 98.4%
- residual activity (WNK3 (human)): 100%
- residual activity (EPHA8 (human)): 101%
- residual activity (CDK3 CCNE1 (human)): 98.2%
- residual activity (MAPK10 (human)): 102%
- residual activity (TTK (human)): 112%
- residual activity [1]: 125%
- residual activity (NEK4 (human)): 95.4%
- residual activity (ERBB4 (human)): 83.7%
- residual activity (PLK1 (human)): 102%
- residual activity (PTK6 (human)): 85.5%
- residual activity (PRKCZ (human)): 98.3%
- residual activity (MAPKAPK3 (human)): 97.8%
- residual activity (NEK6 (human)): 93.4%
- residual activity (NEK3 (human)): 91.6%
- residual activity (MAP4K2 (human)): 101%
- residual activity (PRKG2 (human)): 38.3%
- residual activity (LRRK2 (human)): 92.8%
- residual activity (CAMK2G (human)): 92.6%
- residual activity (ACVR1 (human)): 94.7%
- residual activity (NEK7 (human)): 104%
- residual activity (TBK1 (human)): 93.4%
- residual activity (TGFBR1 (human)): 103%

Structure (SMILES): Cn1c2ccccc2c2c3c(c4c5ccccc5n(CCC#N)c4c21)CNC3=O
- residual activity (CHEK2 (human)): 50.2%
- residual activity (PRKCA (human)): 7.58%
- residual activity (DYRK1B (human)): 25.6%
- residual activity (PHKG2 (human)): 8.4%
- residual activity (CSF1R (human)): 84.1%
- residual activity (DYRK4 (human)): 95.7%
- residual activity (PRKCB1 (human)): 18.7%
- residual activity (MAP3K9 (human)): 1.49%
- residual activity (CDK9 CCNK (human)): 55.2%
- residual activity (NUAK1 (human)): 3.86%
- residual activity (GSK3B (human)): 38.9%
- residual activity (SRMS (human)): 96.6%
- residual activity (FGFR4 (human)): 86.5%
- residual activity (ADRBK1 (human)): 103%
- residual activity (ADRBK2 (human)): 106%
- residual activity (CDK2 CCNE1 (human)): 27.8%
- residual activity (PDGFRA (human)): 83.5%
- residual activity (MAP3K5 (human)): 49.8%
- residual activity (CDK6 CCND1 (human)): 39.4%
- residual activity (GRK7 (human)): 37.9%
- residual activity (WNK3 (human)): 93.1%
- residual activity (EPHA8 (human)): 91.7%
- residual activity (CDK3 CCNE1 (human)): 65.2%
- residual activity (MAPK10 (human)): 94.5%
- residual activity (TTK (human)): 69%
- residual activity [1]: 76.3%
- residual activity (NEK4 (human)): 49.1%
- residual activity (ERBB4 (human)): 100%
- residual activity (PLK1 (human)): 103%
- residual activity (PTK6 (human)): 38.7%
- residual activity (PRKCZ (human)): 87%
- residual activity (MAPKAPK3 (human)): 83.7%
- residual activity (NEK6 (human)): 103%
- residual activity (NEK3 (human)): 133%
- residual activity (MAP4K2 (human)): 5.68%
- residual activity (PRKG2 (human)): 28.2%
- residual activity (LRRK2 (human)): 30.5%
- residual activity (CAMK2G (human)): 21.9%
- residual activity (ACVR1 (human)): 155%
- residual activity (NEK7 (human)): 97%
- residual activity (TBK1 (human)): 72.1%
- residual activity (TGFBR1 (human)): 104%

Structure (SMILES): Ic1cccc(CSc2nnc(-c3ccncc3)o2)c1
- residual activity (CHEK2 (human)): 102%
- residual activity (PRKCA (human)): 123%
- residual activity (DYRK1B (human)): 96.7%
- residual activity (PHKG2 (human)): 105%
- residual activity (CSF1R (human)): 104%
- residual activity (DYRK4 (human)): 98.5%
- residual activity (PRKCB1 (human)): 97.5%
- residual activity (MAP3K9 (human)): 108%
- residual activity (CDK9 CCNK (human)): 105%
- residual activity (NUAK1 (human)): 95.1%
- residual activity (GSK3B (human)): 59.8%
- residual activity (SRMS (human)): 93.4%
- residual activity (FGFR4 (human)): 97.2%
- residual activity (ADRBK1 (human)): 99.9%
- residual activity (ADRBK2 (human)): 103%
- residual activity (CDK2 CCNE1 (human)): 102%
- residual activity (PDGFRA (human)): 90.1%
- residual activity (MAP3K5 (human)): 91.7%
- residual activity (CDK6 CCND1 (human)): 97.5%
- residual activity (GRK7 (human)): 112%
- residual activity (WNK3 (human)): 101%
- residual activity (EPHA8 (human)): 91.5%
- residual activity (CDK3 CCNE1 (human)): 87.4%
- residual activity (MAPK10 (human)): 95.7%
- residual activity (TTK (human)): 103%
- residual activity [1]: 120%
- residual activity (NEK4 (human)): 93.7%
- residual activity (ERBB4 (human)): 96.4%
- residual activity (PLK1 (human)): 98.6%
- residual activity (PTK6 (human)): 104%
- residual activity (PRKCZ (human)): 96.1%
- residual activity (MAPKAPK3 (human)): 109%
- residual activity (NEK6 (human)): 95.4%
- residual activity (NEK3 (human)): 86.9%
- residual activity (MAP4K2 (human)): 112%
- residual activity (PRKG2 (human)): 105%
- residual activity (LRRK2 (human)): 91.9%
- residual activity (CAMK2G (human)): 96.8%
- residual activity (ACVR1 (human)): 97.4%
- residual activity (NEK7 (human)): 102%
- residual activity (TBK1 (human)): 103%
- residual activity (TGFBR1 (human)): 94.4%
